Results as given in article PMC10343752, “Anti-α-Glucosidase, SAR Analysis, and Mechanism Investigation of Indolo[1,2-b]isoquinoline Derivatives” (Molecules, 2023).
Values belong to the compound of their own block, whether it stands above or below them.

Columns and labels:
[1] = target: T1, α-glucosidase from Saccharomyces cerevisiae (Saccharomyces cerevisiae, UniProt P53341); experiment: biochemical; format: biochemical; conditions: α-glucosidase 0.1 U/mL, PNPG 0.25 mM, pH 6.8, 37 °C; read-out: α-Glucosidase inhibitory activity IC50
T1 construct: purchased Sigma-Aldrich
Protocol: (§1) α-Glucosidase from Saccharomyces cerevisiae (EC 3.2.1.20) was purchased from Sigma-Aldrich. p-Nitrophenyl-α-D-[…] (PNPG) was obtained from Abcam. Other reagents were commercially available.
After the addition of PNPG (0.25 mM), the change in absorbance was measured at 405 nm. […] All experiments were performed four times.

[2] = target: T2, α-glucosidase (Saccharomyces cerevisiae, UniProt P53341); experiment: CD spectra, secondary structure contents of α-glucosidase; format: binding
T2 construct: purchased Sigma-Aldrich
From the text: CD spectra were also monitored to study the effect of compounds 9, 11, 13, 18, and 19 on the conformational changes of α-glucosidase. As shown in Figure 7a–e, α-glucosidase presented two negative CD bands in the region of 190~280 nm, which was owed to the electronic transitions of n→π* of α-helical bonds. […] While treatment of compounds 9, 13, 18, and 19 led to an increase of α-helix and a reduction of β-sheet, β-turn, and random coils, respectively (Table 3). CD spectra have been an important method by which to study protein structural changes and secondary structural content. Previous research has shown that the interaction of an inhibitor with α-glucosidase caused the partial folding and loosening of the α-glucosidase structure.
as §1
Compounds 9, 11, 13, 18, and 19 with different concentrations were added into α-glucosidase solution (31 μM) and incubated for 5 min, respectively, then the CD spectra of the mixture were recorded. CDNN was used to analyze the ratio of protein secondary conformations.

[3] = target: T2, α-glucosidase; experiment: α-glucosidase inhibition kinetics (enzyme kinetics and Lineweaver-Burk substrate kinetics); format: biochemical
From the text: Compounds 9, 11, 13, 18, and 19 with different α-glucosidase inhibitory activity were selected as representative compounds to reveal the inhibition mechanism of indolo[1,2-b]isoquinoline derivatives (1–21) on α-glucosidase by the implementation of an inhibition kinetics study. […] For substrate kinetics (Figure 5b,d,f,h,j), the Lineweaver-Burk plots of remaining enzyme activity versus […] treated with compounds 9, 11, 13, 18, and 19 intersected at one point in the second quadrant, respectively. The inhibition kinetics study was an effective method by which to understand the inhibition mechanism of the inhibitor against the target protein. In a substrate kinetics study, different inhibition mechanisms of inhibitors manifested as different intersection positions of Lineweaver-Burk plots. […] Moreover, compounds 9, 11, 13, 18, and 19 bind with both free enzyme and enzyme-substrate complexes to inhibit α-glucosidase. The inhibition kinetics constants of compounds 9, 11, 13, 18, and 19 were obtained and are listed in Table 2, including Ki, Kis, Km, and Vmax values, which might be helpful to understand the inhibition mechanism.
as §1
The kinetics of enzyme inhibition for compounds 9, 11, 13, 18, and 19 were obtained by plotting the enzymatic reaction rate versus enzyme concentration with or without compounds 9, 11, 13, 18, and 19, and the kinetics of substrate inhibition were measured using Lineweaver Burk plots of the enzymatic reaction rate versus substrate concentration with or without compounds 9, 11, 13, 18, and 19 [37, 38, 39, 40].

[4] = system: hepatocytes LO2 cells; experiment: In vitro cytotoxicity, MTT method; format: cell-based; conditions: 24 h, up to a concentration of 32 μM
Protocol: The in vitro cytotoxicity of compounds 9, 11, 13, 18, and 19 against hepatocytes LO2 cells was detected using the MTT method.
The in vitro cytotoxicity of compound 11 against hepatocytes LO2 cells was assayed using the MTT method. LO2 cells were cultured in DMEM containing 10% FBS, 100 IU/mL penicillin, and 100 IU/mL streptomycin at 37 °C under 5% CO2. An amount of 100 μL of LO2 cells was seeded into a 96-well plate (5000 per well) for 24 h, and was then treated with compounds 9, 11, 13, 18, and 19 for 24 h, respectively. Then, MTT solution was added into each well and incubated for 4 h. An amount of […] of DMSO was used to dissolve the obtained crystallization. Then, this absorbance was determined at 490 nm. Each sample was performed in triplicate.

[5] = target: T2, α-glucosidase; experiment: 3D fluorescence spectra of α-glucosidase with compounds; format: binding; conditions: α-glucosidase 5 μM
From the text: The 3D fluorescence spectra of α-glucosidase with compounds 9, 11, 13, 18, and 19 was investigated to analyze the effect of compounds on the structure of α-glucosidase, respectively. Two important characteristic peaks appeared in the 3D fluorescence spectra of α-glucosidase (Figure 6a,c,e,g,i), including Peak 1 ([…]), corresponding to the main chain structure of the polypeptide, and Peak 2 ([…]), corresponding to tyrosine and tryptophan residues. […] (Figure 6b,d,f,h,j). Previously, 3D fluorescence spectra have been used to determine protein conformation changes.
as §1
Compounds 9, 11, 13, 18, and 19 were added to α-glucosidase (5 μM) in 100 μL of PBS and incubated for 5 min, then the 3D fluorescence spectra of the mixture were recorded [32]^. The excitation and emission wavelengths were 200–500 nm and the slit width was 2.5 nm. All data were imported into Matlab for processing.

[6] = molar ratio [α-Glu]:[Comp.] 1:1
[7] = molar ratio [α-Glu]:[Comp.] 1:2
[8] = molar ratio [α-Glu]:[Comp.] 1:3

T2 sequence (P53341 whole entry): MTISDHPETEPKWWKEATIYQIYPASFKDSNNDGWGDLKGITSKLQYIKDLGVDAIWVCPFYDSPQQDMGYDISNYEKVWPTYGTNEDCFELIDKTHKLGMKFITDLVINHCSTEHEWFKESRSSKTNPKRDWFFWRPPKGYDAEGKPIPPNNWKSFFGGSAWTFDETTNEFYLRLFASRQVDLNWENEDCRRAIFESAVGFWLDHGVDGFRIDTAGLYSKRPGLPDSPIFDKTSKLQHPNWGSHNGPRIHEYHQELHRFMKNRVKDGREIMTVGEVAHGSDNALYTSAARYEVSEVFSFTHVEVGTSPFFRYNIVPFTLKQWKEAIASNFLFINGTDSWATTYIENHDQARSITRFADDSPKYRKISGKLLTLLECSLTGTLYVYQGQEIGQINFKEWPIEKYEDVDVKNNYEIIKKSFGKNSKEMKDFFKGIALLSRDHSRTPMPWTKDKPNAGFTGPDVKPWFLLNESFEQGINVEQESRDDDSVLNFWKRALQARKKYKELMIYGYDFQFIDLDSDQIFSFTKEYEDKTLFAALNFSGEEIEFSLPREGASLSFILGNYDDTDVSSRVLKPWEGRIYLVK
T1 sequence (P53341 whole entry): as above

SMILES: O=C1c2ccccc2-n2c1c(-c1ccccc1)c1ccccc1c2=O [Compound 1]
IC50 [1]: 23.46 ± 0.23 µM

SMILES: Cc1ccc(-c2c3n(c(=O)c4ccccc24)-c2ccccc2C3=O)cc1 [Compound 2]
IC50 [1]: 17.4 ± 0.25 µM

SMILES: Cc1ccccc1-c1c2n(c(=O)c3ccccc13)-c1ccccc1C2=O [Compound 4]
IC50 [1]: 22.3 ± 0.63 µM

SMILES: CCc1ccc(-c2c3n(c(=O)c4ccccc24)-c2ccccc2C3=O)cc1 [Compound 5]
IC50 [1]: 16.1 ± 0.46 µM

SMILES: O=C1c2ccccc2-n2c1c(-c1ccc(Cl)cc1)c1ccccc1c2=O [Compound 7]
IC50 [1]: 14.7 ± 0.37 µM

SMILES: COc1ccc(-c2c3n(c(=O)c4ccccc24)-c2ccccc2C3=O)cc1 [Compound 8]
IC50 [1]: 15.1 ± 0.44 µM

SMILES: CN(C)c1ccc(-c2c3n(c(=O)c4ccccc24)-c2ccccc2C3=O)cc1 [Compound 9]
effect on CD band intensity of α-glucosidase ([2]; 190~280 nm): decrease in CD band intensity
Rndm Coil [2, 6]: 35.10%
α-Helix [2, 6]: 10.80%
β-Sheet [2, 6]: 35.60%
β-Turn [2, 6]: 19.30%
Rndm Coil [2, 7]: 34.60%
α-Helix [2, 7]: 13.00%
β-Sheet [2, 7]: 31.90%
β-Turn [2, 7]: 19.30%
Rndm Coil [2, 8]: 33.40%
α-Helix [2, 8]: 13.10%
β-Sheet [2, 8]: 31.70%
β-Turn [2, 8]: 19.10%
inhibition type (substrate kinetics) ([3]; Lineweaver-Burk plots): mixed-type inhibition
Ki ([3]; inhibition kinetics constant): 30.5 µM
Kis ([3]; inhibition kinetics constant): 96.19 µM
Vmax ([3]; inhibition kinetics constant): 0.12 µM/min/mg
reversibility of inhibition (enzyme kinetics) ([3]; plots of remaining enzyme activity versus enzyme concentration): reversible
effect on cell viability [4]: no significant effect on cell viability
effect on fluorescence intensity of Peak 1 and Peak 2 of α-glucosidase [5]: decrease the fluorescence intensity
IC50 [1]: 40.9 ± 0.69 µM

The next compounds have a lower IC50 [1] than those just listed; values first:

IC50 [1]: 12.2 ± 0.46 µM
SMILES: O=C1c2ccccc2-n2c1c(-c1ccccc1Cl)c1ccccc1c2=O [Compound 10]

IC50 [1]: 9.25 ± 0.14 µM
SMILES: Cc1cccc(-c2c3n(c(=O)c4ccccc24)-c2ccccc2C3=O)c1 [Compound 3]

IC50 [1]: 5.76 ± 0.26 µM
SMILES: CC(C)(C)c1ccc(-c2c3n(c(=O)c4ccccc24)-c2ccccc2C3=O)cc1 [Compound 6]
